This is an account of results in paper PMC7083148, “Identification of a General Odorant Receptor for Repellents in the Asian Corn Borer Ostrinia furnacalis” (Frontiers in Physiology, 2020).

This assay deals with T1, OfurOR27 (Ostrinia furnacalis, UniProt A0A0E4B5I0).
T1 construct: gene OR27; full-length ORF (402 amino acids); with OfurOrco (OfurOR2)
T1 sequence (A0A0E4B5I0 1-401): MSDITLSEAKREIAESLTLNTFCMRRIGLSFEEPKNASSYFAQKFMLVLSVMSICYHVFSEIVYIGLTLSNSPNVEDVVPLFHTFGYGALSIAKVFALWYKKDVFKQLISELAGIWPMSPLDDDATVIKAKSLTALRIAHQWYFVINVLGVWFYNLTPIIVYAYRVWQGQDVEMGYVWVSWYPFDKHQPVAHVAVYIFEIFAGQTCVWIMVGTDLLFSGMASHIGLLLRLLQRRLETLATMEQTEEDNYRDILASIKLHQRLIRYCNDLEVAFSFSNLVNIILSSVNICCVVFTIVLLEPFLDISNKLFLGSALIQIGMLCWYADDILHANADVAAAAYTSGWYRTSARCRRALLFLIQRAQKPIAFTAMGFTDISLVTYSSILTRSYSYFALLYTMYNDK
T1 sequence (A0A0E4B591 1-474 partner): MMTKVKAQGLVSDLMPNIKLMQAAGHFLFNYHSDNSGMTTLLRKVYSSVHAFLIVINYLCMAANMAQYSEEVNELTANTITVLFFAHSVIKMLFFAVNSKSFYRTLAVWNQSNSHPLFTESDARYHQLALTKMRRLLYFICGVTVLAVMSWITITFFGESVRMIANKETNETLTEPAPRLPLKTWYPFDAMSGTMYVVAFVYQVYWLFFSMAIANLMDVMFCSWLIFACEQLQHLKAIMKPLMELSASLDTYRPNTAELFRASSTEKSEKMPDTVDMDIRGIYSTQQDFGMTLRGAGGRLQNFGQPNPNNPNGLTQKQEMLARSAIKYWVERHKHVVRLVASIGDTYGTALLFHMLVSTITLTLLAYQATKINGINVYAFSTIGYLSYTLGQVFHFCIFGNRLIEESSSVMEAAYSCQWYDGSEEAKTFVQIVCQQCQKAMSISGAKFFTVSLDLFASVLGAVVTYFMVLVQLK
Put plainly: two-electrode voltage clamp in Xenopus oocytes co-expressing OfurOR27/OfurOrco, dose-response. The class given is cell-based.
`CCCCCCCC=O` [octanal]: the midpoint of the response, the EC50, lay at 1180 nM.
`CCCCCCCCC=O` [nonanal] gave an EC50 of 367 nM.
`CCCCCCCCO` [1-octanol] displayed an EC50 of 14100 nM.
